Results on 30 compounds are retold here after patent publication US9630922B2, “3-spiro-7-hydroxamic acid tetralins as HDAC inhibitors” (Forma Therapeutics, Inc., priority 2015, dated 2017).

The structures appear in SMILES notation. Where only a bound is given, the exact number is not on record here.

The experiment has as its target T1, HDAC6 (Homo sapiens, UniProt Q9UBN7).
T1 construct: Full length human recombinant HDAC6 protein was expressed in baculoviral system; made in house; host or cells: baculoviral system
T1 sequence (Q9UBN7 1-1215): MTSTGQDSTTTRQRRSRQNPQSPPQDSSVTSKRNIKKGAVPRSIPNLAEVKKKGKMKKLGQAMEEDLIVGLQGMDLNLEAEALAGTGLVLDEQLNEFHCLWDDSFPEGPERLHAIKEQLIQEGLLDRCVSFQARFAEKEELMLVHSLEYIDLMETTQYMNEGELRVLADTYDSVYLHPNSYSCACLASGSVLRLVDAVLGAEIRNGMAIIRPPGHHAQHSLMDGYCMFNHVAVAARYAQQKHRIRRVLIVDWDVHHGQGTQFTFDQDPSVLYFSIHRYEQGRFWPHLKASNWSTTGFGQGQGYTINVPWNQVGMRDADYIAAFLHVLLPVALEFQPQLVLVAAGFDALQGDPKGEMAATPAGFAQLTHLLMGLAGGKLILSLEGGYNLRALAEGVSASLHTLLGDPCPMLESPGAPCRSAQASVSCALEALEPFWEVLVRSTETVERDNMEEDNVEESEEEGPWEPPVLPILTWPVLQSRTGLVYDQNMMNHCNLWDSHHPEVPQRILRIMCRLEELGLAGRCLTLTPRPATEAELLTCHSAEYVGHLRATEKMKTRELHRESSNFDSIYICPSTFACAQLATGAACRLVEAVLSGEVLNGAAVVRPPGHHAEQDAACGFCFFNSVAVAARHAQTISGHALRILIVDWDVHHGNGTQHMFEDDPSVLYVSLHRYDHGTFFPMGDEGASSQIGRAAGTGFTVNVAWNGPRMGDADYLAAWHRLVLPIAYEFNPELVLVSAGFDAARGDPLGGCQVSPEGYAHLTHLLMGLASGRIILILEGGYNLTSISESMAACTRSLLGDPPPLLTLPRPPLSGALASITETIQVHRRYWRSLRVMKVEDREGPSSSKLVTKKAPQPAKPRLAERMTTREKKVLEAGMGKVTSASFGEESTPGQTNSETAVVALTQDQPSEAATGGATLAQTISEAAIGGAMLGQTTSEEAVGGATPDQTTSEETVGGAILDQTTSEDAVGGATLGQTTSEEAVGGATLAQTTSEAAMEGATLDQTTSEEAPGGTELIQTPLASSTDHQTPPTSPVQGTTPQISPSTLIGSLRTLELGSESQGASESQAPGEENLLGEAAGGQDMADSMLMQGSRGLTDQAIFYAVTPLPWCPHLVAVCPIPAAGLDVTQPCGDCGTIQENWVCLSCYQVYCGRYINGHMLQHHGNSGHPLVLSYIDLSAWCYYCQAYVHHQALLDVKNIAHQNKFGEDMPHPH
The experiment in a line: In vitro Histone Deacetylase Assay (enzymatic HDAC6 electrophoretic mobility shift assay). In kind it is biochemical. To be noted: full length human recombinant HDAC6, 1 nM enzyme, 2 μM peptide substrate RHKK(Ac)-NH2, 25° C.; read-out: HDAC6 activity range. In outline:
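Deacetylation was read by microfluidic mobility shift as product/(substrate+product) peak ratio and normalised to 0% and 100% inhibition controls. Reactions used 1 nM baculovirus-expressed full-length human HDAC6 and 2 μM labelled RHKK(Ac)-NH2 in pH 7.5 HEPES buffer with 1% DMSO at 25 °C. IC50 was from 4-parameter fits of 12 concentrations.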
Background: Mobility shift assays separate free from complexed probe on a gel.

For `O=C(NO)c1ccc2c(c1)CCC1(CC(=O)N(c3cccnc3)C1)C2` (single isomer, unassigned) [Compound I-221], the IC50 was at most 100 nM.
The value for `O=C(NO)c1ccc2c(c1)CC[C@]1(CCN(Cc3ccccc3C(F)(F)F)C1=O)C2` [Compound I-39, (R)-N-hydroxy-2′-oxo-1′-(2-(trifluoromethyl)benzyl)-3,4-dihydro-1H-spiro[naphthalene-2,3′-pyrrolidine]-6-carboxamide] was at most 100 nM.
`O=C(NO)c1ccc2c(c1)CCC1(CCCN(CC3CCC3)C1=O)C2` (single isomer, unassigned) [Compound I-186]: the IC50 was at most 100 nM.
For the compound `O=C(NO)c1ccc2c(c1)CCC1(CCN(S(=O)(=O)C3CCCCC3)CC1)O2` [II-6, 1′-(cyclohexylsulfonyl)-N-hydroxyspiro[chromane-2,4′-piperidine]-6-carboxamide], the IC50 was 100 to 500 nM.
The figure for `COc1cc(N2CC[C@@]3(CCc4cc(C(=O)NO)ccc4C3)C2=O)ccn1` [Compound I-150, (S)-N-hydroxy-1′-(2-methoxypyridin-4-yl)-2′-oxo-3,4-dihydro-1H-spiro[naphthalene-2,3′-pyrrolidine]-6-carboxamide] is at most 100 nM; for `O=C(NO)c1ccc2c(c1)CC[C@@]1(CCN(C3CCC3)C1=O)C2` (single isomer, unassigned) [Compound I-172] it is at most 100 nM; for `O=C(NO)c1ccc2c(c1)CC[C@@]1(CCN(Cc3ccncc3)C1=O)C2` [Compound I-15, (S)-N-hydroxy-2′-oxo-1′-(pyridin-4-ylmethyl)-3,4-dihydro-1H-spiro[naphthalene-2,3′-pyrrolidine]-6-carboxamide] it is at most 100 nM.
Turning to `COc1ccc(CCN2CCC3(CCc4cc(C(=O)NO)ccc4C3)C2)cc1` (stereo not drawn) [Compound I-2, N-hydroxy-1′-(4-methoxyphenethyl)-3,4-dihydro-1H-spiro[naphthalene-2,3′-pyrrolidine]-6-carboxamide], the IC50 lay within 100 to 500 nM.
Turning to `O=C(NO)c1ccc2c(c1)CCC1(CCN(C3CCCCC3)CC1)O2` [II-8, 1′-cyclohexyl-N-hydroxyspiro[chromane-2,4′-piperidine]-6-carboxamide], the IC50 was above 500 nM.
In the case of `COc1ccccc1CN1CC[C@@]2(CCc3cc(C(=O)NO)ccc3C2)C1=O` [Compound I-72, (S)-N-hydroxy-1′-(2-methoxybenzyl)-2′-oxo-3,4-dihydro-1H-spiro[naphthalene-2,3′-pyrrolidine]-6-carboxamide], the IC50 was at most 100 nM.
The figure for `O=C(NO)c1ccc2c(c1)CC[C@@]1(CCN(c3ccncc3Cl)C1=O)C2` [Compound I-141, (S)-1′-(3-chloropyridin-4-yl)-N-hydroxy-2′-oxo-3,4-dihydro-1H-spiro[naphthalene-2,3′-pyrrolidine]-6-carboxamide] is at most 100 nM; for `O=C(NO)c1ccc2c(c1)CC[C@@]1(CCN(c3cc(F)ccc3F)C1=O)C2` [Compound I-169, (S)-1′-(2,5-difluorophenyl)-N-hydroxy-2′-oxo-3,4-dihydro-1H-spiro[naphthalene-2,3′-pyrrolidine]-6-carboxamide] it is at most 100 nM; for `CC#CCN1CC[C@@]2(CCc3cc(C(=O)NO)ccc3C2)C1=O` [Compound I-63, (S)-1′-(but-2-yn-1-yl)-N-hydroxy-2′-oxo-3,4-dihydro-1H-spiro[naphthalene-2,3′-pyrrolidine]-6-carboxamide] it is at most 100 nM.
`COc1cccc(CN2CC[C@@]3(CCc4cc(C(=O)NO)ccc4C3)C2=O)c1` [Compound I-77, (S)-N-hydroxy-1′-(3-methoxybenzyl)-2′-oxo-3,4-dihydro-1H-spiro[naphthalene-2,3′-pyrrolidine]-6-carboxamide]: the IC50 was at most 100 nM.
The value for `O=C(NO)c1ccc2c(c1)CC[C@@]1(CCN(Cc3ccccc3)C1=O)C2` [Compound I-76, (S)-1′-benzyl-N-hydroxy-2′-oxo-3,4-dihydro-1H-spiro[naphthalene-2,3′-pyrrolidine]-6-carboxamide] was at most 100 nM; that for `O=C(NO)c1ccc2c(c1)CC[C@@]1(CCN(Cc3ccc4nonc4c3)C1=O)C2` [Compound I-70, (S)-1′-(benzo[c][1,2,5]oxadiazol-5-ylmethyl)-N-hydroxy-2′-oxo-3,4-dihydro-1H-spiro[naphthalene-2,3′-pyrrolidine]-6-carboxamide] was at most 100 nM; that for `CN1CC2(CCc3cc(C(=O)NO)ccc3C2)CC1=O` (single isomer, unassigned) [Compound I-202] was at most 100 nM.
In the case of `O=C(NO)c1ccc2c(c1)CCC1(CC(=O)N(Cc3ccccc3)C1)C2` (single isomer, unassigned) [Compound I-216], the IC50 was at most 100 nM.
Regarding `O=C(NO)c1ccc2c(c1)CC[C@]1(CCN(Cc3cccc(F)c3)C1=O)C2` [Compound I-53, (R)-1′-(3-fluorobenzyl)-N-hydroxy-2′-oxo-3,4-dihydro-1H-spiro[naphthalene-2,3′-pyrrolidine]-6-carboxamide], the IC50 was at most 100 nM.
The value for `O=C(NO)c1ccc2c(c1)CC[C@]1(CCN(Cc3c(Cl)cccc3Cl)C1=O)C2` [Compound I-49, (R)-1′-(2,6-dichlorobenzyl)-N-hydroxy-2′-oxo-3,4-dihydro-1H-spiro[naphthalene-2,3′-pyrrolidine]-6-carboxamide] was at most 100 nM; that for `Cc1ccccc1CN1CC2(CCc3cc(C(=O)NO)ccc3C2)CC1=O` (single isomer, unassigned) [Compound I-225] was at most 100 nM; that for `O=C(NO)c1ccc2c(c1)CCC1(CCN(C(=O)N3CC4(CCOCC4)c4ccccc43)CC1)O2` [II-9, N-hydroxy-1′-(2′,3′,5′,6′-tetrahydrospiro[indoline-3,4′-pyran]-1-carbonyl)spiro[chromane-2,4′-piperidine]-6-carboxamide] was above 500 nM.
The value for `N#Cc1ccccc1N1CC[C@]2(CCc3cc(C(=O)NO)ccc3C2)C1=O` [Compound I-175, (R)-1′-(2-cyanophenyl)-N-hydroxy-2′-oxo-3,4-dihydro-1H-spiro[naphthalene-2,3′-pyrrolidine]-6-carboxamide] was at most 100 nM; that for `N#Cc1cccc(N2CC[C@@]3(CCc4cc(C(=O)NO)ccc4C3)C2=O)c1` [Compound I-116, (S)-1′-(3-cyanophenyl)-N-hydroxy-2′-oxo-3,4-dihydro-1H-spiro[naphthalene-2,3′-pyrrolidine]-6-carboxamide] was at most 100 nM; that for `O=C(NO)c1ccc2c(c1)CC[C@]1(CCCN(C3CC3)C1=O)C2` [Compound I-183, (S)-1′-cyclopropyl-N-hydroxy-2′-oxo-3,4-dihydro-1H-spiro[naphthalene-2,3′-piperidine]-6-carboxamide] was at most 100 nM.
For `O=C(NO)c1ccc2c(c1)CC[C@@]1(CCN(Cc3cc(Cl)ccc3Cl)C1=O)C2` [Compound I-74, (S)-1′-(2,5-dichlorobenzyl)-N-hydroxy-2′-oxo-3,4-dihydro-1H-spiro[naphthalene-2,3′-pyrrolidine]-6-carboxamide], the IC50 fell in the range of 100 to 500 nM.
The figure for `COc1ccc(F)c(N2CC[C@@]3(CCc4cc(C(=O)NO)ccc4C3)C2=O)c1` [Compound I-147, (2S)-1′-(2-fluoro-5-methoxyphenyl)-N-hydroxy-2′-oxo-3,4-dihydro-1H-spiro[naphthalene-2,3′-pyrrolidine]-6-carboxamide] is at most 100 nM; for `COc1cncc(N2CC[C@@]3(CCc4cc(C(=O)NO)ccc4C3)C2=O)c1` [Compound I-144, (2S)-N-hydroxy-1′-(5-methoxypyridin-3-yl)-2′-oxo-3,4-dihydro-1H-spiro[naphthalene-2,3′-pyrrolidine]-6-carboxamide] it is at most 100 nM.
The value for `CCCN1CC[C@@]2(CCc3cc(C(=O)NO)ccc3C2)C1=O` [Compound I-60, (S)-N-hydroxy-2′-oxo-1′-propyl-3,4-dihydro-1H-spiro[naphthalene-2,3′-pyrrolidine]-6-carboxamide] was 100 to 500 nM; that for `O=C(NO)c1ccc2c(c1)CCC1(CCN(c3cccnc3)C1=O)O2` (stereo not drawn) [Compound I-233, N-hydroxy-2′-oxo-1′-(pyridin-3-yl)spiro[chromane-2,3′-pyrrolidine]-6-carboxamide] was 100 to 500 nM.
